The source of these data is patent US6143722A, “Heptapeptide oxytocin analogues” (Ferring, B.V., priority 1996, dated 2000).

Data set [1] deals with T1, Recombinant human oxytocin receptors (Homo sapiens, UniProt P30559).
T1 construct: expressed in transfected cells; host or cells: CHO or HEK293 cells (membrane fraction)
T1 sequence (P30559 1-389): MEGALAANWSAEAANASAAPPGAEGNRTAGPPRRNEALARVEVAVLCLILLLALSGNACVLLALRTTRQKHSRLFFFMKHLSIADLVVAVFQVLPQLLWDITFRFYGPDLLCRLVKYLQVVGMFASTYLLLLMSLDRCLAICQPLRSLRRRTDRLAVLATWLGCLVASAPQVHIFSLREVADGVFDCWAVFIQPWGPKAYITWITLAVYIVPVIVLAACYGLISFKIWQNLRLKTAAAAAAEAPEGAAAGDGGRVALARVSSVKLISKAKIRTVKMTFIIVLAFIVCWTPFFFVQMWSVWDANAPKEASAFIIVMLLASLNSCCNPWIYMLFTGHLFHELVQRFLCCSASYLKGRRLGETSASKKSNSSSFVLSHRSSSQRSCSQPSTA
In words: Oxytocin receptor binding assay ([125I]-oxytocin, membrane fraction). To be noted: recombinant human oxytocin receptors expressed in CHO or HEK293 cells, mean ± SEM. The procedure: i) Oxytocin receptor binding assay
Recombinant human oxytocin receptors were expressed in either CHO or HEK293 cells using standard molecular biological techniques. A membrane fraction was prepared and incubated in the presence of [^125 I]-oxytocin and varying concentrations of heptapeptide analogue. Membranes were then isolated by filtration and counted for radioactivity to determine oxytocin binding. An inhibition constant Ki was determined for the analogue.

For data set [2] the following is noted: pH 4.5.
Description: (§1) Solutions of the heptapeptide analogues of the present invention were prepared with compositions representative of aqueous formulations. The solutions were stored for several weeks at 50° C. and aliquots were withdrawn periodically for analysis by HPLC. Reference peptides were studied in parallel. Degradation was determined as the loss of peptide (% by weight per week), independent of the nature of the decomposition products.
Data set [3] deals with Uterus muscle tissue from women in late pregnancy. The data set can be described thus: Antagonist effect in vitro in a human uterus model (oxytocin-induced contraction of uterus muscle strips). It is filed as cell-based. The settings on record: concentration of antagonist reducing the oxytocin response to 50% of control; isolated human uterus strips. The method, then:
ii) Antagonist effect in vitro in a human uterus model
Uterus muscle tissue from women in late pregnancy undergoing Caesarean section was cut into strips which were mounted in a tissue bath filled with Krebs-Ringer buffer and oxygenated with carbogen (95% O2 +5% CO2) gas. Changes in isometric muscle tension detected with a tension transducer were recorded on a Grass polygraph.
The concentration-effect curve of oxytocin was recorded. The effect measured in this case corresponds to the net value of the integrated contraction curve during the 10 minute period following agonist (i.e. oxytocin) administration. A concentration of oxytocin giving at least half-maximal response was selected. This concentration of agonist was administered to the tissue in the presence of different concentrations of antagonist heptapeptide analogue and the response was recorded. The concentration of antagonist required to reduce the response to 50% of its control value was determined by regression analysis and is given here as an IC50 value. [IC50 value=concentration of antagonist required to reduce the effect of a given agonist dose by 50%].

The test system of the next data set is myometrium. The data set is classed as in vivo, Sprague Dawley rats. The settings on record: for ID50, rat model: in vivo. The method, then: Sprague Dawley rats (ca. 250 g) in natural estrus were anaesthetised with Inactin (0.5 mg/100 g body weight, i.p.). The activity of the myometrium was measured with the aid of a catheter fixed in the uterine cavity and filled with modified Lockes solution. The catheter was connected to a Statham P23D force transducer and the contractions were recorded on a Grass polygraph (model 7D).
The dose-response curve for oxytocin (2×10^-4 -5×10^-3 μmol/kg) was recorded. In this case the response was quantified by integration of the curve during the 15 minutes following agonist injection. A dose of oxytocin giving an effect corresponding to an intralumenar contraction pressure of 10-30 mm Hg and within the linear section of the curve was selected. This dose of oxytocin was administered to the animal in conjunction with at least two different doses of antagonist and the effect was recorded. The dose of antagonist which reduces the effect of the agonist to 50% of tis control value was determined by interpolation and is given here as an ID50 value. [ID50 value=dose of antagonist required to reduce the effect of a given agonist dose by 50%].
The duration of action of the antagonists was also determined in this model. An oxytocin dose was selected (2×10^-4 -5×10^-3μmol/kg) giving an effect corresponding to half the maximum effect (this dose is the ED50). The effect determined here is the same as for the ID50 determination defined above. An antagonist dose was selected (8×10^-4 -4×10^-3 μmol/kg) so as to give at least 50% inhibition of the response to the agonist. At the beginning of the experiment, single doses of the agonist and antagonist were co-administered. At 20 minute intervals thereafter, doses of the agonist alone were administered and the response was measured. […] [t75 value=time period required for the effectiveness of a single dose to decline by 75%].

Data set [4] in a line: Evaluation of stability in aqueous solution (HPLC). To be noted: Isotonic citrate/phosphate buffer, pH 4.5; stored at 50° C.; loss of peptide by HPLC.
Description: as §1

Read-outs that look alike come from different tables or passages of the source. *1 amine or outer side, *2 acyl side, *3 side chain or, on linkers, in order; H or OH if unused. Where a SMILES comes first, the peptide text is derived from it. Bridges are numbered along the chain shown (N, C = ends). [ ]: non-standard residue; d: D form. ξ: configuration not given here. d2Nal = N[C@H](Cc1ccc2ccccc2c1)C(=O)O; aIle = CC[C@@H](C)[C@H](N)C(=O)O; hCys = N[C@@H](CCS)C(=O)O; ξNMeOrn = CNC(CCCN)C(=O)O; X1 = O=C(CC[*:2])[*:1]

Regarding `CC[C@H](C)[C@@H]1NC(=O)[C@@H](Cc2c[nH]c3ccccc23)NC(=O)CCSCC[C@@H](C(=O)N(C)[C@H](CO)CCCN)NC(=O)[C@H](CC(N)=O)NC(=O)[C@H](C(C)C)NC1=O` [III], the Ki in data set [1] stood at 0.8 ± 0.3 nM. In addition, the “Degradation at 50° C. (wt %/week)” value in data set [2] was determined as 0.7 wt %/week. Turning to `CC[C@H](C)[C@@H]1NC(=O)[C@@H](Cc2c[nH]c3ccccc23)NC(=O)CCSCC[C@@H](C(=O)N(C)[C@H](CO)CCCN)NC(=O)[C@H](CC(N)=O)NC(=O)[C@H](CC(C)C)NC1=O` [II], the Ki in data set [1] is 3.2 ± 0.75 nM. The same measure, in the same setting: next, `CC[C@H](C)[C@@H]1NC(=O)[C@@H](Cc2c[nH]c3ccccc23)NC(=O)CCSCC[C@@H](C(=O)N(C)[C@H](CO)CCCN)NC(=O)[C@H](CC(N)=O)NC(=O)[C@H](CC2CCCCC2)NC1=O` [IV]: 7 ± 1.85 nM.

For `CC[C@@H](C)[C@@H]1NC(=O)[C@H]([C@@H](C)CC)NC(=O)[C@@H](Cc2c[nH]c3ccccc23)NC(=O)CCSCC[C@@H](C(=O)N(C)[C@H](CO)CCCN)NC(=O)[C@H](CC(N)=O)NC1=O` [Peptide I], in data set [1], the Ki was 0.25 ± 0.16 nM. 5 ± 1 nM corresponded to half-maximal inhibition in data set [3] (IC50). Besides, the “Degradation at 50° C. (wt %/week)” value in data set [2] was found to be 0.4 wt %/week. The “t75, rat model” value with myometrium (duration of action: time for the effectiveness of a single dose to decline by 75%, antagonist dose 8×10^-4 -4×10^-3 μmol/kg) is given as 169 ± 2 min. The “ID50, rat model” value with myometrium worked out at 2.9 ± 0.3 nmol/kg. On to `CCC(CC)[C@@H]1NC(=O)[C@H]([C@@H](C)CC)NC(=O)[C@@H](Cc2c[nH]c3ccccc23)NC(=O)CCSCC[C@@H](C(=O)N(C)[C@H](CO)CCCN)NC(=O)[C@H](CC(N)=O)NC1=O` [VII], for which, in data set [1], the inhibition constant (Ki) was found to be 2.4 ± 0.85 nM. In the case of `CC[C@@H](C)[C@@H]1NC(=O)[C@H]([C@@H](C)CC)NC(=O)[C@@H](Cc2ccc3ccccc3c2)NC(=O)CCSCC[C@@H](C(=O)N(C)[C@H](CO)CCCN)NC(=O)[C@H](CC(N)=O)NC1=O` [VI], the Ki in data set [1] is 0.1 nM. Also, the “Degradation at 50° C. (wt %/week)” value in data set [2] stood at 1.2 wt %/week. Regarding `CC[C@H](C)[C@@H]1NC(=O)[C@H]([C@@H](C)CC)NC(=O)[C@@H](Cc2c[nH]c3ccccc23)NC(=O)CCSCC[C@@H](C(=O)N(C)[C@H](CO)CCCN)NC(=O)[C@H](CC(N)=O)NC1=O` [V], the Ki in data set [1] came to 1.4 ± 0.15 nM.

As to `CC[C@@H](C)[C@@H]1NC(=O)[C@H]([C@@H](C)CC)NC(=O)[C@@H](Cc2c[nH]c3ccccc23)NC(=O)CCSCC[C@@H](C(=O)N(C)C(CCCN)C(N)=O)NC(=O)[C@H](CC(N)=O)NC1=O` (some centres unmarked) [r-IX, reference compound] ([dW]I[aIle]N[hCys][ξNMeOrn]-NH2; linker N-5 via X1), in data set [4], the “Degradation at 50° C. (wt %/week)” value stood at 2.9 wt %/week. The “ID50, rat model” value in the data set on myometrium is recorded as 2.9 ± 0.3 nmol/kg. `CC[C@@H](C)[C@@H]1NC(=O)[C@H]([C@@H](C)CC)NC(=O)[C@@H](Cc2ccc3ccccc3c2)NC(=O)CCSCC[C@@H](C(=O)N(C)C(CCCN)C(N)=O)NC(=O)[C@H](CC(N)=O)NC1=O` (some centres unmarked) [r-XI] ([d2Nal]I[aIle]N[hCys][ξNMeOrn]-NH2; linker N-5 via X1): the “Degradation at 50° C. (wt %/week)” value in data set [4] is reported as 4.0 wt %/week. Turning to `CC[C@H](C)[C@@H]1NC(=O)[C@@H](Cc2c[nH]c3ccccc23)NC(=O)CCSCC[C@@H](C(=O)N(C)C(CCCN)C(N)=O)NC(=O)[C@H](CC(N)=O)NC(=O)[C@H](C(C)C)NC1=O` (some centres unmarked) [r-X] ([dW]IVN[hCys][ξNMeOrn]-NH2; linker N-5 via X1), the “Degradation at 50° C. (wt %/week)” value in data set [4] is recorded as 4.3 wt %/week.

Broadly, the Ki is the equilibrium dissociation constant of an inhibitor or competing ligand from its target. One may read the IC50 as the concentration that gives 50% inhibition. A lower IC50 goes with higher potency.
